From article PMC5285354, “Cationic Net Charge and Counter Ion Type as Antimicrobial Activity Determinant Factors of Short Lipopeptides” (Frontiers in Microbiology, 2017)
Converted amounts (≈) assume the structure as drawn. Where two headings read alike, the source gives them in different places. Where a SMILES comes first, the peptide text is derived from it. The star is where a group is joined. Lauroyl = CCCCCCCCCCCC(=O)*

Key:
Assay type in all cases: cell-based
[1] = test system: Pseudomonas aeruginosa (ATCC 9027); conditions: ATCC 9027, 24 h
[2] = test system: Staphylococcus aureus (ATCC 25923)
Procedure, shortened: (§1)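 Lowest lipopeptide concentration (μg/mL) with no observable growth gave the MIC, alongside MBC/MFC, by CLSI microbroth dilution. Fungi: Sabouraud dextrose broth, 10^3 cfu/mL start, 25°C for 48 h; bacteria: MH broth, 10^5 cfu/mL, 37°C for 18 h. Run in triplicate, three separate days.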

[3] = test system: Candida albicans (ATCC 10231); conditions: ATCC 10231, 48 h
Procedure, shortened: as §1

[4] = test system: Staphylococcus epidermidis (PCM 2118); conditions: for MIC Staphylococcus epidermidis: PCM 2118, 18 h; for MBC Staphylococcus epidermidis: PCM 2118, 24 h
Procedure, shortened: as §1

[5] = test system: Bacillus subtilis (ATCC 6633); conditions: for MIC Bacillus subtillis: ATCC 6633, 18 h; for MBC Bacillus subtillis: ATCC 6633, 24 h
Procedure, shortened: as §1

[6] = test system: Proteus vulgaris (PCM 2668); conditions: PCM 2668, TFA salt, triplicate; for MBC Proteus vulgaris: subculture on Mueller-Hinton II Agar, 24 h 37°C; for MIC Proteus vulgaris: Mueller-Hinton broth, 10^5 cfu/mL, 18 h 37°C
Procedure, shortened: as §1

[7] = test system: Candida tropicalis (PCM 2681); conditions: PCM 2681, 48 h
Procedure, shortened: as §1

[8] = test system: Aspergillus brasiliensis (ATCC 16404); conditions: ATCC 16404, 48 h
Procedure, shortened: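 CLSI broth microdilution: bacteria in Mueller-Hinton broth at 10^5 cfu/mL inoculum, 18 h at 37°C; fungi in Sabouraud Dextrose broth at 10^3 cfu/mL, 48 h at 25°C. MIC (μg/mL) is the lowest lipopeptide concentration inhibiting visible growth; triplicate on three days.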

[9] = test system: Escherichia coli (ATCC 25922)
Procedure, shortened: as §1

[10] = test system: Enterococcus faecalis (ATCC 29212)
Procedure, shortened: as §1

[11] = test system: Pseudomonas aeruginosa (ATCC 9027); conditions: ATCC 9027, 18 h
Procedure, shortened: as §1

[12] = test system: Klebsiella pneumoniae (ATCC 700603)
Procedure, shortened: as §1

[13] = test system: human red blood cells; conditions: 1 h
Experimental: The hemolytic activity of the lipopeptides was determined by exposing human red blood cells (4% v/v) to tested compounds at graded concentrations. Red blood cells were obtained from a healthy donor. EDTA was used to prevent the blood clotting. The plasma was removed via centrifugation and the erythrocytes were washed three times with PBS. The red blood cells were suspended in PBS and incubated with different concentrations of lipopeptides at 37°C for 1 h and centrifuged for 5 min at 1000 × g. The supernatants were transferred to a sterile 96-well plate and hemoglobin release was measured with an Epoch microplate spectrophotometer (BioTek, USA) by recording the absorbance at 550 nm. A 0.1% Triton X-100 solution was used as the positive control (100% of hemolysis) and pure PBS as the negative (0% of hemolysis). Minimum hemolytic concentration (MHC) was taken as the lowest concentration which induced 10% of hemolysis.

Row | Compound | MBC Pseudomonas aeruginosa [1] [µg/mL] | MIC Staphylococcus aureus ([2]; ATCC 25923, 18 h) [µg/mL] | MBC Staphylococcus aureus ([2]; ATCC 25923, 24 h) [µg/mL] | MFC Candida albicans [3] [µg/mL] | MIC Candida albicans [3] [µg/mL] | MIC Staphylococcus epidermidis [4] [µg/mL] | MBC Staphylococcus epidermidis [4] [µg/mL] | MIC Bacillus subtillis [5] [µg/mL] | MBC Bacillus subtillis [5] [µg/mL] | MBC Proteus vulgaris [6] [µg/mL] | MFC Candida tropicalis [7] [µg/mL] | MIC Candida tropicalis [7] [µg/mL] | MFC Aspergillus brasiliensis [8] [µg/mL] | MIC Aspergillus brasiliensis [8] [µg/mL] | MBC Escherichia coli ([9]; ATCC 25922, 24 h) [µg/mL] | MIC Enterococcus fecalis ([10]; ATCC 29212, 18 h) [µg/mL] | MIC Pseudomonas aeruginosa [11] [µg/mL] | MBC Klebsiella pneumoniae ([12]; ATCC 700603, 24 h) [µg/mL] | Hemolysis HC10 (MHC), concentration of lipopeptide inducing 10% of hemolysis [13] [µg/mL] | MIC Proteus vulgaris [6] [µg/mL] | further results
1 | CCCCCCCCCCCC(=O)N[C@@H](CCCCN)C(=O)NCC(N)=O [C12-KG-NH2] (Lauroyl-Lys-Gly-NH2) | 512 (≈ 1330 µM) | 256 (≈ 666 µM) | 512 (≈ 1330 µM) | 512 (≈ 1330 µM) | 512 (≈ 1330 µM) | 128 (≈ 333 µM) | 128 (≈ 333 µM) | 128 (≈ 333 µM) | 256 (≈ 666 µM) | >2000 | 512 (≈ 1330 µM) | 512 (≈ 1330 µM) | 512 (≈ 1330 µM) | 256 (≈ 666 µM) | 512 (≈ 1330 µM) | 256 (≈ 666 µM) | 256 (≈ 666 µM) | 512 (≈ 1330 µM) | 1000 |  | MIC Escherichia coli ([9]; ATCC 25922, 18 h): 256 µg/mL (≈ 666 µM); MBC Enterococcus fecalis ([10]; ATCC 29212, 24 h): 256 µg/mL (≈ 666 µM); MIC Klebsiella pneumoniae ([12]; ATCC 700603, 18 h): 256 µg/mL (≈ 666 µM)
2 | CCCCCCCCCCCC(=O)N[C@@H](CCCCN)C(=O)NCC(=O)N[C@@H](CCCCN)C(=O)NCC(N)=O [C12-KGKG-NH2] (Lauroyl-KGKG-NH2) | 1000 (≈ 1760 µM) | 2000 (≈ 3510 µM) | 2000 (≈ 3510 µM) | 2000 (≈ 3510 µM) | 1000 (≈ 1760 µM) | 256 (≈ 449 µM) | 512 (≈ 899 µM) | 64 (≈ 112 µM) | 64 (≈ 112 µM) | >2000 | 2000 (≈ 3510 µM) | 1000 (≈ 1760 µM) | 1000 (≈ 1760 µM) | 1000 (≈ 1760 µM) | 2000 (≈ 3510 µM) | 512 (≈ 899 µM) | 1000 (≈ 1760 µM) | 2000 (≈ 3510 µM) | 256 | >2000 | MIC Escherichia coli ([9]; ATCC 25922, 18 h): 2000 µg/mL (≈ 3510 µM); MBC Enterococcus fecalis ([10]; ATCC 29212, 24 h): 512 µg/mL (≈ 899 µM); MIC Klebsiella pneumoniae ([12]; ATCC 700603, 18 h): 2000 µg/mL (≈ 3510 µM)
3 | CCCCCCCCCCCC(=O)N[C@@H](CCCCN)C(=O)NCC(=O)N[C@@H](CCCCN)C(N)=O [C12-KGK-NH2] (Lauroyl-Lys-Gly-Lys-NH2) | 1000 (≈ 1950 µM) |  | 1000 (≈ 1950 µM) | 2000 (≈ 3900 µM) | 2000 (≈ 3900 µM) | 64 (≈ 125 µM) | 128 (≈ 250 µM) | 512 (≈ 999 µM) | 1000 (≈ 1950 µM) |  | 2000 (≈ 3900 µM) | 2000 (≈ 3900 µM) | 2000 (≈ 3900 µM) | 1000 (≈ 1950 µM) | 1000 (≈ 1950 µM) |  | 1000 (≈ 1950 µM) | 1000 (≈ 1950 µM) | 1000 | >2000 | 
4 | CCCCCCCCCCCC(=O)N[C@@H](CCCCN)C(=O)N[C@@H](CCCCN)C(=O)N[C@@H](CCCCN)C(N)=O [C12-KKK-NH2] |  | 1000 (≈ 1710 µM) | 1000 (≈ 1710 µM) | 1000 (≈ 1710 µM) | 1000 (≈ 1710 µM) | 64 (≈ 110 µM) | 64 (≈ 110 µM) | 64 (≈ 110 µM) | 128 (≈ 219 µM) |  | 1000 (≈ 1710 µM) | 1000 (≈ 1710 µM) | 512 (≈ 877 µM) | 512 (≈ 877 µM) | 1000 (≈ 1710 µM) | 512 (≈ 877 µM) | 512 (≈ 877 µM) | 1000 (≈ 1710 µM) | 512 | >2000 | MBC Enterococcus fecalis ([10]; ATCC 29212, 24 h): 512 µg/mL (≈ 877 µM); MIC Klebsiella pneumoniae ([12]; ATCC 700603, 18 h): 1000 µg/mL (≈ 1710 µM)
5 | CCCCCCCCCC(=O)N[C@@H](CCCCN)C(=O)N[C@@H](CCCCN)C(N)=O [C10-KK-NH2] | 2000 (≈ 4680 µM) |  |  | 2000 (≈ 4680 µM) | 2000 (≈ 4680 µM) | 256 (≈ 599 µM) | 512 (≈ 1200 µM) | 256 (≈ 599 µM) | 512 (≈ 1200 µM) | >2000 | 1000 (≈ 2340 µM) | 1000 (≈ 2340 µM) | 1000 (≈ 2340 µM) | 1000 (≈ 2340 µM) |  |  | 2000 (≈ 4680 µM) |  | 4000 | >2000 | MBC Staphylococcus aureus ([2]; ATCC 25923, TFA salt, MIC wells subcultured on Mueller-Hinton II Agar, 24 h 37°C, triplicate): >2000 µg/mL; MIC Staphylococcus aureus ([2]; ATCC 25923, TFA salt, Mueller-Hinton broth, 10^5 cfu/mL, 18 h 37°C, triplicate on three days): >2000 µg/mL; MIC Escherichia coli ([9]; ATCC 25922, TFA salt, Mueller-Hinton broth, 10^5 cfu/mL, 18 h 37°C, triplicate): >2000 µg/mL; MBC Escherichia coli ([9]; ATCC 25922, TFA salt, subculture on Mueller-Hinton II Agar, 24 h 37°C, triplicate): >2000 µg/mL; MIC Enterococcus fecalis ([10]; ATCC 29212, TFA salt, Mueller-Hinton broth, 10^5 cfu/mL, 18 h 37°C, triplicate): >2000 µg/mL; MBC Enterococcus fecalis ([10]; ATCC 29212, TFA salt, subculture on Mueller-Hinton II Agar, 24 h 37°C, triplicate): >2000 µg/mL; MIC Klebsiella pneumoniae ([12]; ATCC 700603, TFA salt, Mueller-Hinton broth, 10^5 cfu/mL, 18 h 37°C, triplicate): >2000 µg/mL; MBC Klebsiella pneumoniae ([12]; ATCC 700603, TFA salt, subculture on Mueller-Hinton II Agar, 24 h 37°C, triplicate): >2000 µg/mL
